Assay results published in patent US4968672A, “Adenosine receptor prodrugs” (priority 1987, dated 1990).
Where two headings read alike, the source gives them in different places.

What was measured:
acute renal failure = acute renal failure models (ischemia, glycerol injection); type: in vivo; conditions: compared with theophylline and 8-phenyltheophylline
[1] = test system: adenosine receptors (glomerular filtration rate); assay: glomerular filtration rate after N6-cyclohexyladenosine in rats; type: in vivo, rat
[2] = test system: blood brain barrier / central nervous system; assay: brain entry / central side effects
[3] = test system: adenosine receptors (kidney and non-renal vasculature); assay: blood pressure and sodium excretion in CHA-treated rats (Table 4); type: in vivo, rat
Procedure: ^1 CHA = N^6 -cyclohexyladenosine administered as a constant
infusion of 10 nanmoles/min./kg. Total dose administered over 45 min. was
approximately […] (= relatively high dose).
^2 Xanthine antagonists were administered in a bolus injection of 0.2
umoles/kg followed by an infusion of 2 nanamoles per kg/min.

A1 adenosine receptors = biological target: T1, A1 adenosine receptors (Rattus norvegicus, UniProt P25099); assay: membrane binding assay at A1 adenosine receptors (Tables 1 and 2)
T1 construct: rat cerebral cortex membranes; from tissue; host or cells: rat cerebral cortex membranes
T1 sequence (P25099 1-326): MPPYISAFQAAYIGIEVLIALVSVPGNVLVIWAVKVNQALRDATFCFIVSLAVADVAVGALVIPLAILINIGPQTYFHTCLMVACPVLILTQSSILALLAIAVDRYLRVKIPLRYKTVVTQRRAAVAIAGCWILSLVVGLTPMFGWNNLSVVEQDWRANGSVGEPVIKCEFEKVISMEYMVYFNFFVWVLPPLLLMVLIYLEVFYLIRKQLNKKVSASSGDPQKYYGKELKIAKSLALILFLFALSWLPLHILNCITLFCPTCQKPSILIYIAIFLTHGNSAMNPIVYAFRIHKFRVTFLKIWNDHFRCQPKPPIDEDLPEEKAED
Source text: Table 2 lists prodrugs (including Routes A and B of FIG. 2) and chemical intermediates, based on xanthine and adenosine functionalized congener and the method of synthesis. The potency of each compound at A1 adenosine receptors is indicated by the Ki (inverse relationship to potency) in a membrane binding assay.

solubility = type: physicochemical
A2 receptor = biological target: T2, A2 receptor (Homo sapiens, UniProt P29274); assay: antagonism of NECA-induced stimulation of adenylate cyclase activity in human platelet membranes; type: biochemical; conditions: antagonism of NECA-stimulated adenylate cyclase, human platelet membranes; means with 95% confidence limits from 3 experiments; read-out: A2 receptor KB
T2 construct: human platetlet membranes; from tissue; host or cells: human platelet membranes
T2 sequence (P29274 whole entry): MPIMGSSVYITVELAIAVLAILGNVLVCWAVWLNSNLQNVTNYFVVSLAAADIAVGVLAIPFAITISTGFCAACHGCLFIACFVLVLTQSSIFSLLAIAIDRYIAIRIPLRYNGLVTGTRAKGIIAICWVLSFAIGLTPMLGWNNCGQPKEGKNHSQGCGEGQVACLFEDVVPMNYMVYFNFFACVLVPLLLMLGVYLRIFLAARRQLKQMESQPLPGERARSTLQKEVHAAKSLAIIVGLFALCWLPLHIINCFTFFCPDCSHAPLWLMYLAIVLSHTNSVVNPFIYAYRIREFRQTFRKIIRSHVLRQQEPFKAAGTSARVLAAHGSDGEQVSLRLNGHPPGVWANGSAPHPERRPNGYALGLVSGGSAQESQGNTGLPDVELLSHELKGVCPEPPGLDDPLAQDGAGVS
Procedure: Measurements of the potencies of the xanthines as antagonists of NECA-induced stimulation of adenylate cyclase activity in human platetlet membranes and as inhibitors of [^3 H]PIA binding to rat cerebral cortex membranes were carried out as reported previously.

[4] = stability to enzymatic hydrolysis; type: in vitro ADME
A2 adenosine receptors = assay: reversal of 2-chloroadenosine-stimulated cyclic AMP production in guinea pig brain slices; type: cell-based; conditions: amino acid conjugates of 1a
Source text: […]. As modifications of these xanthines designed to increases A2 -potency we have explored changing the size of the 1,3-dialkyl groups and incorporating distal amino groups in the functionalized 8-phenyl moiety.

A1-receptors = conditions: cited from earlier work
renin release = renin release by the kidney; type: in vivo
adenosine receptors = assay: adenosine agonist activity
[5] = CHA infusion 10 nmol/min/kg, antagonists 0.2 umoles/kg bolus then 2 nmol/kg/min

SMILES: CCCn1c(=O)c2[nH]c(-c3ccc(OCC(=O)NCCNC(=O)CC[C@H](NC(C)=O)C(=O)O)cc3)nc2n(CCC)c1=O [Compound 17, N-Acetyl-glutamic acid (gamma XAC)]
- effect in acute renal failure (acute renal failure): act in the same manner except for considerably greater potency and selectivity
- reversal of the effect of the adenosine agonist on glomerular filtration rate ([1]; XAC I.V. 5-50 ug/kg): even greater return of glomerular filtration rate than did XAC
- % of normal glomerular filtration rate (after) ([1]; dose 10 × low, after xanthine, CHA-treated rats): 84.8%
- % of normal glomerular filtration rate (before) ([1]; dose 10 × low, before xanthine, CHA-treated rats): 48%
- central side effects [2]: side effects of the xanthine acting as a central stimulant are not observed
- entry into the brain / passage across the blood brain barrier [2]: entry into the brain is impeded
- reversal of hypotensive effect of adenosine agonists (non-renal vasculature) [3]: not by the prodrug, 17
- Sodium excretion [3, 5]: 2.12 ± 0.36 uEq/min/kg
- b.p. [3, 5]: 103.5 ± 3.5 mmHg
- Ki (A1 adenosine receptors; Table 1, prodrug before cleavage, read-out: Ki(nM) at A1 Before Cleavage): 240 nM
- Ki (A1 adenosine receptors; Table 2, read-out: Ki (A1(nM))): 240 nM

SMILES: CCCn1c(=O)c2[nH]c(-c3ccc(OCC(=O)NCCNC(=O)[C@H](N)CCCCN)cc3)nc2n(CCC)c1=O [Compound 61c]
- water solubility (solubility): high water solubility
- Kb (A2 receptor): 0.037 µM
- stability to enzymatic hydrolysis [4]: stability to enzymatic hydrolysis
- potency (A2 adenosine receptors): high potency

SMILES: CCCn1c(=O)c2[nH]c(-c3ccc(OCC(=O)NCCN)cc3)nc2n(CCC)c1=O [[^3 H]XAC]
- affinity compared with [3H]DPX (A1-receptors): higher affinity

SMILES: NCCNC(=O)Cc1ccc(NC(=O)Cc2ccc(Nc3ncnc4c3ncn4[C@@H]3O[C@H](CO)[C@@H](O)[C@H]3O)cc2)cc1 [Compound 1b]
- renin release by the kidney (renin release): a decrease in renin release by the kidney
- entry into the brain / passage across the blood brain barrier [2]: excluded from passage across the blood brain barrier
- adenosine agonist potency in vitro and in vivo (adenosine receptors): highly potent as an adenosine agonist in vitro and in vivo
